In patent US5744355A, “cDNA cloning and expression of human liver estrogen sulfotransferase” (Mayo Foundation for Medical Education and Research, priority 1995, dated 1998):

T1: protein encoded by the human liver EST cDNA (Homo sapiens, UniProt P49888)
T1 construct: made in house; host or cells: COS-1 (ATCC CRL-1650) cells transiently transfected with EST-p91023(B); 100,000 x g supernatant used
T1 sequence (P49888 1-294): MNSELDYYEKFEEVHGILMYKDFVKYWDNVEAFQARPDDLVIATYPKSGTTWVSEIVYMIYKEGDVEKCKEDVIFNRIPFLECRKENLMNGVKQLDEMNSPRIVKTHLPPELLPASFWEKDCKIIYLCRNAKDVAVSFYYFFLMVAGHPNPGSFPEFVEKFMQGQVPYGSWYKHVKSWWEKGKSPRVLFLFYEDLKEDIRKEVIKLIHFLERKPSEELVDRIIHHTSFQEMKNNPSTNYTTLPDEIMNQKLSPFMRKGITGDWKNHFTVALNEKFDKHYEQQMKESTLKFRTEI

T2: recombinant human liver EST enzyme (Homo sapiens, UniProt P49888)
T2 sequence (P49888 1-294): T1 sequence (P49888 1-294)

T3: recombinant human liver DHEA ST enzyme (Homo sapiens, UniProt Q06520)
T3 sequence (Q06520 1-285): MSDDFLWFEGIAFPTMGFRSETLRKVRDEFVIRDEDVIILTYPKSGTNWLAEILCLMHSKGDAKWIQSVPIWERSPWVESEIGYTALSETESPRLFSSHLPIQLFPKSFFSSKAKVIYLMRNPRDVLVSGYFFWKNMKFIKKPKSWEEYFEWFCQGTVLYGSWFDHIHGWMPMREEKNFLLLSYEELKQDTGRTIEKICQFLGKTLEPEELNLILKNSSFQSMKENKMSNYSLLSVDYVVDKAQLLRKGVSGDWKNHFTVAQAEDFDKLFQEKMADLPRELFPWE

T4: human EST enzyme (Homo sapiens, UniProt P49888)
T4 sequence (P49888 1-294): T1 sequence (P49888 1-294)

B1: EST enzyme: recombinant human liver estrogen sulfotransferase (SEQ ID NO:2) expressed in COS-1 cells (protein)
chain: T1 sequence (P49888 1-294)

How the values were obtained:
[1] = target: T1, protein encoded by the human liver EST cDNA; assay: ST enzymatic activity after transfection of COS-1 cells with human liver EST cDNA in p91023(B); type: biochemical; settings: for sulfation catalyzed by the protein encoded by the human liver EST cDNA: approximate values, transfected COS-1 cells; for ST enzymatic activity, EST cDNA, Average: average of two experiments; for ST enzymatic activity, EST cDNA, Average / ST enzymatic activity, EST cDNA, Expt. 1: HSS of transfected COS-1 cells
Protocol: COS-1 (ATCC No. CRL-1650) cells were transfected with an EST cDNA expression construct in the eukaryotic expression vector p91023(B) as well as with vector alone using the DEAE-dextran method (H. Luthman et al., Nucleic Acids Res., 11, 1295-1308 (1983)). Specifically, the COS-1 cells were plated in 100-mm dishes in Dulbecco's modified Eagle's medium (DMEM) supplemented with 10% fetal calf serum (FCS) at a density of 1.2×10^6 cells/dish, and were grown overnight. The EST-p91023(B)construct, a control human liver DHEA ST-p91023(B) construct, p91023(B) with no insert, or only buffer were mixed with DEAE-dextran and DMEM and were added to the cell culture dishes (J. H. McCutchan et al., J. Natl. Cancer Inst., 41, 351 (1968); R. J. Kaufman et al., Mol. Cell. Biol., 2, 946 (1989)). After 1 hour, the DEAE-dextran solution was replaced for 2 minutes by DMEM that contained 10% dimethylsulfoxide (DMSO), followed by 0.1 mM chloroquine in DMEM for 2 hours (H. Luthman et al., Nucleic Acids Res., 11, 1295 (1983)). Cells were then grown for 48 hours in DMEM supplemented with 10% FCS. After harvesting, cell pellets were washed with 5 ml of phosphate buffered saline (PBS) and were homogenized for 30 seconds in 2 ml of 5 mM potassium phosphate buffer, pH 6.5. The homogenates were centrifuged at 12,000-15,000×g for 15 minutes at 4° C., and supernatants were collected and centrifuged at 100,000×g for 1 hour at 4° C. Five μl aliquots of the 100,000×g "high-speed supernatants" (HSS) were assayed for ST enzymatic activities (Example IV).
ST activities were measured in preparations of transfected COS- 1 cells using DHEA, 4- nitrophenol and dopamine, model substrates for DHEA ST, TS PST and TL PST, respectively (Example IV). The assays were performed under optimal conditions for the measurement of these three enzyme activities in human liver preparations (N. R. C. Campbell et al., Biochem. Pharmacol., 36, 1435-1446 (1987); J. S. Hernandez et al., Drug Metab. Dispos., 20, 413-422 (1992), both of which are incorporated herein by reference). The sulfation of estrone was measured using optimal conditions for the assay of EST activity of human EST enzyme (Example III(c)).
Estrone was used as the substrate to determine optimal assay conditions and, subsequently, to characterize the properties of human EST enzyme. […] Mg^2+ is known to increase the activities of several ST enzymes (J. S. Hernandez et al., Drug Metab. Dispos., 20, 413-422 (1992); I. A. Aksoy et al., Druc, Metab. Dispos., 21, 268-276 (1993)). […]

[2] = target: T2, recombinant human liver EST enzyme; assay: Substrate kinetics (apparent Km), COS-1 expressed EST enzyme; type: biochemical; parameters: made in house; host or cells: COS-1 (ATCC CRL-1650) cells transiently transfected with EST-p91023(B); 100,000 x g supernatant used; settings: compound as sulfate acceptor substrate; estrone 0.01 to 0.1 μM, DHEA 0.0125 to 32 μM
Protocol: (§1) Total reaction assay volume was about 200 μl . […] The tubes were vortexed after each addition.
(§2) Substrate kinetic studies designed to estimate apparent Km values were performed utilizing the EST and DHEA ST activity assays described above and in Example III. Since human liver EST enzyme and DHEA ST enzyme can both catalyze the sulfation of steroids, these studies presented an opportunity to determine apparent Km values of the two enzymes with estrone and DHEA as substrates. Both enzyme preparations were tested with a range of estrone and DHEA concentrations (Table III).
(§3) Apparent Km values were calculated by the method of Wilkinson (Biochem. J., 80, 324-332 (1961)) with a computer program written by Cleland (Nature, 198, 463-465 (1963)).

[3] = target: T3, recombinant human liver DHEA ST enzyme; assay: Substrate kinetics (apparent Km), COS-1 expressed DHEA ST enzyme; type: biochemical; parameters: made in house; host or cells: COS-1 cells transiently transfected with human liver DHEA ST-p91023(B); 100,000 x g supernatant used; settings: compound as sulfate acceptor substrate; estrone 0.2 to 100 μM, DHEA 0.06 to 10 μM
Protocol: as §1, §2, §3

human EST enzyme = target: T4, human EST enzyme; assay: Preferred substrate and optimal assay conditions for recombinant human EST enzyme; type: biochemical
Protocol: Estrone was used as the substrate to determine optimal assay conditions and, subsequently, to characterize the properties of human EST enzyme. […] The optimal pH for the measurement of estrone ST activity with the expressed protein was approximately 6.5 in the presence of 8.2 mM potassium phosphate buffer. […] EST activity assays were subsequently performed on crude extracts from recombinant COS-1 cells expressing human EST enzyme using the optimal assay conditions thus identified: at a reaction pH of 6.5 in the presence of 1.25 mM MgCl2 with 0.05 μM estrone as the sulfate acceptor substrate, in 8.2 mM potassium phosphate buffer.

[4] = target: T2, recombinant human liver EST enzyme; settings: 150 mM NaCl; substrate estrone
Source text: Estrone was used as the substrate to determine optimal assay conditions and, subsequently, to characterize the properties of human EST enzyme. […] Mg^2+ is known to increase the activities of several ST enzymes (J. S. Hernandez et al., Drug Metab. Dispos., 20, 413-422 (1992); I. A. Aksoy et al., Druc, Metab. Dispos., 21, 268-276 (1993)).

[5] = target: T3, recombinant human liver DHEA ST enzyme; settings: 75 mM NaCl; substrate DHEA
Protocol: The previously described EST and DHEA ST activity assays were used to measure ST activities of recombinant human liver EST enzyme and DHEA ST enzyme, respectively, wherein NaCl concentration in the reaction mixture was made 0.6 to 150 mM by the addition of 5 μL of a concentrated aqueous NaCl solution prior to incubation.

[6] = Thermal inactivation of ST activity; type: physicochemical, human; settings: 15 minutes preincubation; mean ±SEM
Protocol: Aliquots of recombinant COS-1 cell extracts were incubated at 31°, 33°, 35°, 37°, 39°, 41°, 43° or 45° C. for 15 minutes prior to assay to determine thermal inactivation parameters. […] For the thermal inactivation experiment, aliquots of HSS from COS-1 cells transfected with EST cDNA or DHEA ST cDNA were diluted 1:2 (v/v) with 5 mM potassium phosphate buffer, pH 6.5, preincubated at various temperatures for 15 minutes and was then placed on ice. An aliquot of the same preparation was kept on ice as a control. Each aliquot was then diluted further for assay of the ST activity being measured. Values for controls were determined at each temperature studied. Data obtained during thermal inactivation and DCNP inhibition studies were analyzed with the GraphPAD InPlot curve-fitting program (GraphPAD InPlot Software, San Diego, Calif.).

[7] = first EST cDNA column, estrone 0.05 μM, DHEA 5 μM, 4-nitrophenol 4 μM, dopamine 60 μM, 1 unit = 1 nmol sulfated product per hour at 37° C.
[8] = second EST cDNA column, same substrate concentrations

| Molecule | sulfation catalyzed by the protein encoded by the human liver EST cDNA [1] | ST enzymatic activity, EST cDNA, Average [1] [units/mg protein] | ST enzymatic activity, EST cDNA, Expt. 1 [1, 7] [units/mg protein] | ST enzymatic activity, EST cDNA, Expt. 1 [1, 8] [units/mg protein] | also measured |
| --- | --- | --- | --- | --- | --- |
| C[C@]12CC[C@H](O)CC1=CC[C@@H]1[C@@H]2CC[C@]2(C)C(=O)CC[C@@H]12 [DHEA, dehydroepiandrosterone] | ~ 2 units/mg protein | 2.3 | 1.3 | 3.3 | Km [2]: 0.85 µM; Km [3]: 2.6 µM |
| [Cl-].[Cl-].[Mg+2] [Mg^2+, MgCl2] |  |  |  |  | increase of EST activity (human EST enzyme; 1.25 mM Mg2+, estrone as substrate): 20% |
| [Cl-].[Na+] [NaCl] |  |  |  |  | increase of EST activity [4]: 86%; peak activation of DHEA ST activity [5]: 62% |
| NCCc1ccc(O)c(O)c1 [Dopamine, dopamine] | not | 0.0 | 0.0 | 0.0 |  |
| C[C@]12CC[C@@H]3c4ccc(O)cc4CC[C@H]3[C@@H]1CCC2=O [Estrone] | ~ 9 units/mg protein | 8.8 | 6.0 | 11.5 | sulfotransferase activity relative to other sulfate acceptor substrates (human EST enzyme; compared with estradiol-17β, ethinyl estradiol, or DHEA): greater sulfotransferase activity; estrone concentration giving maximal enzymatic activity (human EST enzyme; range 0.01 to 0.10 μM tested): 0.05 µM; Km [2]: 0.17 µM; Km [3]: 3.1 µM |
| O=[N+]([O-])c1ccc(O)cc1 [4-Nitrophenol, 4-nitrophenol] | ~ 5 units/mg protein | 5.2 | 3.4 | 6.9 |  |
| B1 |  |  |  |  | temperature at which 50% inactivation of activity occurred [6]: 38.2±0.12 °C |
